Experimental findings from patent publication US20250136722A1, “CYTOTOXICITY TARGETING CHIMERAS” (GLAXOSMITHKLINE INTELLECTUAL PROPERTY DEVELOPMENT LIMITED, priority 2021, published 2025) are described below.

Structures are written as SMILES. Values joined by “and” are separate entries in the source; they are usually repeats but may differ in a detail not shown here. Identical values can stand only once.

The subject of test [1] is CCR2 expressing cells (CD11b+Ly6c+ Hi) in peripheral blood. Briefly: In vivo depletion assay, flow cytometry of peripheral blood (Example 201). Particulars: hCCR2 knock-in mice; IV 0.1 mpk compound + 10 mpk anti-cotinine antibody (SEQ ID NO: 13/14); peripheral blood at 48 hr. The arrangement: species or system Human CCR2 (hCCR2) knock-in mice (C57 background). The procedure:
Stock solution preparation: Stock solutions of compounds of Formula (I) were prepared at 20 mg/mL and 100 mg/mL in DMSO for PK/PD and dose tolerability studies respectively. Stock solutions were stored at −20° C. until further usage.
Formulations preparation: On the day of experiment, the stock solution of the compound of Formula (I) was removed from storage at −20° C. and thawed at room temperature. Anti-cotinine antibody having a heavy chain sequence of SEQ ID NO: 13 and a light chain sequence of SEQ ID NO: 14 (rabbit variable region sequence with mouse IgG2a Fc domain), if required was removed from storage at −80° C. and thawed at room temperature. Antibody vials were immediately transferred into wet ice after thawing. Compounds of Formula (I) were further diluted in DMSO as per experimental requirements.
Formulation composition: The formulation composition was Saline:DMSO:PBS. Saline was added based on the quantity required and then stock solution of the compound of Formula (I) prepared in DMSO, followed by addition of antibody in PBS. Formulations were incubated at room temperature for 30 minutes before administration to the mouse. DMSO was used at 1 to 2% (v/v) in the final formulation.
After bleeding, each mouse was sacrificed by cervical dislocation.
CCR2 depletion in peripheral blood was determined by flow cytometry. Briefly, peripheral blood was collected from all animals at the end of study termination and processed. Blood samples were lysed using 1× RBC Lysis buffer and the resulting cell pellet was washed twice in FACS buffer (HBSS containing 5% FBS). Cells were subjected to Fc blocking using mouse Fc block from Biolegend (Trustain, anti-mouse CD16/32, Cat: 101319) to block non-specific binding followed by surface staining for immune markers (CD45, CD3, CD11b, Ly6C, human CCR2). Surface staining was done for 30 minutes in ice and cells were washed twice to remove unbound antibodies. Cells were stained with 7AAD to determine viability and acquired on BD FACSVerse flow cytometer. Appropriate FMO controls and single-color controls were included in the experiment for gating and compensation respectively.
Percent depletion of CD11b+Ly6c+ Hi cells and CCR2 expression for the different treatment groups was determined.
For orientation: Flow cytometry measures light scatter and fluorescence of single cells or particles in a stream.

Test [2] has as its target T1, CHOK1 cells engineered to overexpress human CCR2 (Homo sapiens, UniProt P41597).
T1 construct: expressed in transfected cells; host or cells: CHOK1 cells
Briefly: Antibody dependent cellular cytotoxicity (ADCC) reporter assay (Example 199). The following applies: with anti-cotinine antibody SEQ ID NO: 11/12; CHOK1-human CCR2 target cells, Jurkat FcγRIIIa NFAT-luciferase reporter cells; 12-18 hours; read-out: ADCC Reporter Assay pEC50 (converted). The format is cell-based. In a few lines:
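Potency is reported as pEC50 from a nonlinear fit, averaged over runs, using luciferase signal divided by that of compound-free wells. The readout comes from NFAT-luciferase Jurkat cells expressing FcγRIIIa, mixed for 12–18 h with human CCR2-overexpressing CHOK1 cells, 1 pM–10 μM ARM compound and 0.01–200 μg/mL Fc-enhanced anti-cotinine IgG1.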
On the technique in general: In a reporter assay the amount or activity of a reporter protein is the signal.

Test [3] addresses Anti-cotinine antibody SEQ ID NO: 11 / SEQ ID NO: 12 (rabbit version). Briefly: Binding of rabbit anti-cotinine antibody to ARM compounds by SPR, Biacore 8k, 25° C. (Example 202). An excerpt:
Anti-cotinine antibodies having a heavy chain sequence of SEQ ID NO: 9 and a light chain sequence of SEQ ID NO: 10 (humanized version) or a heavy chain sequence of SEQ ID NO: 11 and a light chain sequence of SEQ ID NO: 12 (rabbit version) were captured via the Fc domain to a protein A or A/G surface on flow cell 2 of a CM5 sensor chip using the Biacore 8k.
After antibody capture, a 1500 second wait step was included to reduce drift in the binding step. ARM compounds of Formula (I) were then flowed over the captured antibodies at varying top concentrations ranging from 250 nM to 4 μM (see Table 6 below for top concentration values). The top concentration was diluted 4-fold over 5 dilutions (with a 0 nM compound cycle included to blank subtract the data). Association and dissociation times of the ARMs compounds of Formula (I) varied between experiments as follows and indicated in Table 6 below: reference 1—association for 600 seconds and dissociation for 1200 seconds at 20 μl/min; reference 2—association for 240 seconds and dissociation for 300 seconds at 30 μl/min; reference 3—association for 360 seconds and dissociation for 600 seconds at 30 μl/min. Anti-cotinine antibody bound to the protein A or A/G surface was regenerated using 50 mM NaOH. Experiments were run at 25° C. at pH 7.4 using HBS-EP+ buffer using Biacore 8K control software and evaluated using Biacore Insight Evaluation software. Curves were fit with the 1:1 kinetic fit inherent to the software, utilising a local Rmax and local drift setting.
Anti-cotinine antibody was tested for binding to ARMs compounds of Formula (I) of the invention in the above assay in or more experimental runs and the results are shown in Table 6 below. Affinity is reported as a pKd value. The pKd value is the negative log of the Kd value, wherein the Kd value is the dissociation constant measured in molar (M) as noted above. For compounds tested in more than one experimental run, the pKd value is reported as an average.

Setting [4] is: reference 3: association 360 s, dissociation 600 s at 30 μl/min, top concentration 2.50E−08 or 6.25E−09 M.

Broadly, the pKd is −log10 of the Kd, conventionally taken in molar units. A lower pKd goes with a large Kd.

As for `CN1C(=O)C[C@H](C(=O)NCCOCCOCCOCCOCCOCCC(=O)N[C@@H]2C[C@H](NC(C)(C)C)CC[C@@H]2N2CC[C@H](Nc3ncnc4ccc(C(F)(F)F)cc34)C2=O)[C@H]1c1cccnc1` [Example 37], the “% Depletion of CCR2 expressing cells” value in test [1] stood at 75%.
Take `CN1C(=O)C[C@H](C(=O)NCCO[C@H]2CC[C@H](OCCCC(=O)N[C@H]3CC[C@H](C(=O)N[C@@H]4C[C@H](NC(C)(C)C)CC[C@@H]4N4CC[C@H](Nc5ncnc6ccc(C(F)(F)F)cc56)C4=O)CC3)CC2)[C@H]1c1cccnc1` [Example 10]: the EC50 in test [2] was 3.16 nM. For the same compound, the negative-log Kd (pKd) result in test [3] (reference 2: association 240 s, dissociation 300 s at 30 μl/min, top concentration 1.00E−06 or 4.00E−06 M) is reported as “Poor fit”.
Consider `CN1C(=O)C[C@H](C(=O)NCCOCCOCCOCCOCCOCCOCCC(=O)N[C@@H]2C[C@H](NC(C)(C)C)CC[C@@H]2N2CC[C@H](Nc3ncnc4ccc(C(F)(F)F)cc34)C2=O)[C@H]1c1cccnc1` [Example 38], for which the “% Depletion of CCR2 expressing cells” value in test [1] stood at 84.55%.
On to `CC(C)N(C)[C@@H]1CC[C@H](N2CC[C@H](Nc3ncnc4ccc(C(F)(F)F)cc34)C2=O)[C@H](NC(=O)[C@H]2CC[C@H](NC(=O)CCCO[C@H]3CC[C@H](OCCNC(=O)[C@H]4CC(=O)N(C)[C@@H]4c4cccnc4)CC3)CC2)C1` [Example 1, (2S,3S)-N-(2-(((1R,4S)-4-(4-(((1R,4R)-4-(((1R,2S,5R)-5-(Isopropyl(methyl)amino)-2-((S)-2-oxo-3-((6-(trifluoromethyl)quinazolin-4-yl)amino)pyrrolidin-1-yl)cyclohexyl)carbamoyl)cyclohexyl)amino)-4-oxobutoxy)cyclohexyl)oxy)ethyl)-1-methyl-5-oxo-2-(pyridin-3-yl)pyrrolidine-3-carboxamide], for which, in test [2], the EC50 is 3.25 nM and 6.61 nM. For the same compound, in test [3] (setting [4]), the ka was found to be 5.57e+06 M⁻¹ s⁻¹, the kd came to 0.000156 s⁻¹ and the negative logarithm of the Kd (pKd) is listed as 10.55.
